Test results published in the supplement of paper PMC10307832.

Columns and labels:
Assay in all cases: relative viability (nuclei count vs DMSO), 5 days (fraction); higher = more cells survive
Ponatinib + Palbociclib = compound: Cc1ccc(C(=O)Nc2ccc(CN3CCN(C)CC3)c(C(F)(F)F)c2)cc1C#Cc1cnc2cccnn12 [Ponatinib] + CC(=O)c1c(C)c2cnc(Nc3ccc(N4CCNCC4)cn3)nc2n(C2CCCC2)c1=O [Palbociclib] (partner 0.5 µM)
Outline: (§1)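 Each reported value is a median over duplicate plates. It expresses relative viability: treated-well nuclei count divided by vehicle-well nuclei count. Lung cancer cell lines in 1536-well plates were dosed by pin tool a day after seeding, alone with one drug or with a fixed anchor-drug dose plus five library-drug doses (not always all listed) in √10 steps, and nuclei were counted after 5 days.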

Pazopanib + Trametinib = compound: Cc1ccc(Nc2nccc(N(C)c3ccc4c(C)n(C)nc4c3)n2)cc1S(N)(=O)=O [Pazopanib] + CC(=O)Nc1cccc(-n2c(=O)n(C3CC3)c(=O)c3c(Nc4ccc(I)cc4F)n(C)c(=O)c(C)c32)c1 [Trametinib] (partner 0.02 µM)
Outline: as §1

Pazopanib + Palbociclib = compound: Cc1ccc(Nc2nccc(N(C)c3ccc4c(C)n(C)nc4c3)n2)cc1S(N)(=O)=O [Pazopanib] + CC(=O)c1c(C)c2cnc(Nc3ccc(N4CCNCC4)cn3)nc2n(C2CCCC2)c1=O [Palbociclib] (partner 0.5 µM)
Outline: as §1

Pazopanib + Pictilisib = compound: Cc1ccc(Nc2nccc(N(C)c3ccc4c(C)n(C)nc4c3)n2)cc1S(N)(=O)=O [Pazopanib] + CS(=O)(=O)N1CCN(Cc2cc3nc(-c4cccc5[nH]ncc45)nc(N4CCOCC4)c3s2)CC1 [Pictilisib] (partner 1 µM)
Outline: as §1

| Cell Line | relative viability (Ponatinib + Palbociclib; first compound 0.002 µM) | relative viability (Ponatinib + Palbociclib; first compound 0.006325 µM) | relative viability (Ponatinib + Palbociclib; first compound 0.06325 µM) | relative viability (Ponatinib + Palbociclib; first compound 0.2 µM) | relative viability (Pazopanib + Trametinib; first compound 0.01 µM) | relative viability (Pazopanib + Trametinib; first compound 0.03162 µM) | relative viability (Pazopanib + Trametinib; first compound 0.1 µM) | relative viability (Pazopanib + Trametinib; first compound 0.3162 µM) | relative viability (Pazopanib + Trametinib; first compound 1 µM) | relative viability (Pazopanib + Palbociclib; first compound 0.01 µM) | relative viability (Pazopanib + Palbociclib; first compound 0.03162 µM) | relative viability (Pazopanib + Palbociclib; first compound 0.1 µM) | relative viability (Pazopanib + Palbociclib; first compound 0.3162 µM) | relative viability (Pazopanib + Palbociclib; first compound 1 µM) | relative viability (Pazopanib + Pictilisib; first compound 0.01 µM) | relative viability (Pazopanib + Pictilisib; first compound 0.03162 µM) | relative viability (Pazopanib + Pictilisib; first compound 0.1 µM) | relative viability (Pazopanib + Pictilisib; first compound 0.3162 µM) | relative viability (Pazopanib + Pictilisib; first compound 1 µM) |
| --- | --- | --- | --- | --- | --- | --- | --- | --- | --- | --- | --- | --- | --- | --- | --- | --- | --- | --- | --- |
| NCI-H441 | 0.238 | 0.229 | 0.252 | 0.209 | 0.5 | 0.445 | 0.474 | 0.563 | 0.734 | 0.24 | 0.248 | 0.198 | 0.211 | 0.273 | 0.449 | 0.52 | 0.573 | 0.603 | 0.39 |
| NCI-H460 | 0.218 | 0.212 | 0.223 | 0.177 | 0.087 | 0.16 | 0.283 | 0.108 | 0.287 | 0.212 | 0.287 | 0.122 | 0.0783 | 0.262 | 0.275 | 0.339 | 0.345 | 0.429 | 0.407 |
| NCI-H520 | 0.215 | 0.207 | 0.172 | 0.16 | 0.606 | 0.78 | 0.644 | 0.751 | 0.6 | 0.185 | 0.23 | 0.244 | 0.224 | 0.188 | – | 0.302 | 0.335 | 0.278 | 0.254 |
| NCI-H647 | 0.358 | 0.345 | 0.47 | 0.438 | 0.377 | 0.48 | 0.487 | 0.609 | 0.439 | 0.345 | 0.463 | 0.363 | 0.361 | 0.29 | 0.319 | 0.532 | – | 0.542 | 0.508 |
| NCI-H650 | 0.313 | 0.321 | 0.295 | 0.314 | 0.942 | 0.918 | 0.984 | 1.13 | 1.13 | 0.344 | 0.381 | 0.355 | 0.337 | 0.315 | 0.789 | 0.838 | 0.92 | 0.836 | 0.79 |
| NCI-H661 | 0.412 | 0.412 | 0.434 | 0.416 | 0.518 | 0.589 | 0.621 | 0.614 | 0.534 | 0.376 | 0.386 | 0.427 | 0.422 | 0.396 | 0.353 | 0.417 | 0.366 | 0.376 | 0.446 |
| NCI-H727 | 0.737 | 0.708 | 0.769 | 0.654 | 0.395 | – | 0.393 | 0.359 | 0.4 | 0.662 | – | 0.634 | 0.597 | 0.718 | 0.356 | 0.244 | 0.497 | 0.393 | 0.483 |
| NCI-H838 | 0.216 | 0.234 | 0.219 | 0.21 | 0.465 | 0.558 | 0.483 | 0.599 | 0.594 | 0.181 | 0.216 | 0.243 | 0.258 | 0.246 | 0.382 | 0.476 | 0.497 | 0.564 | 0.589 |
| NCI-H1355 | 0.43 | 0.432 | 0.492 | 0.439 | 0.363 | 0.409 | 0.397 | 0.446 | 0.534 | 0.33 | 0.4 | 0.426 | 0.407 | 0.45 | – | 0.412 | 0.421 | 0.508 | 0.638 |
